Assay results taken from patent US20160214963A1, “INHIBITORS OF BRUTON'S TYROSINE KINASE” (Beyond Oncology Pharmaceutical LLC, priority 2013, published 2016).
Where two headings read alike, the source gives them in different places. Values belong to the molecule of their own block, whether it stands above or below them.

Tests used:
[1] = tested on: systemic lupus erythematosus (SLE); details: mouse model of SLE; cited from earlier work
arthritis [2] = details: mice; cited from earlier work
MINK = biological target: T1, MINK (Homo sapiens, UniProt Q8N4C8); details: cited from earlier work
T1 construct: literature Ambit
T1 sequence (Q8N4C8 whole entry): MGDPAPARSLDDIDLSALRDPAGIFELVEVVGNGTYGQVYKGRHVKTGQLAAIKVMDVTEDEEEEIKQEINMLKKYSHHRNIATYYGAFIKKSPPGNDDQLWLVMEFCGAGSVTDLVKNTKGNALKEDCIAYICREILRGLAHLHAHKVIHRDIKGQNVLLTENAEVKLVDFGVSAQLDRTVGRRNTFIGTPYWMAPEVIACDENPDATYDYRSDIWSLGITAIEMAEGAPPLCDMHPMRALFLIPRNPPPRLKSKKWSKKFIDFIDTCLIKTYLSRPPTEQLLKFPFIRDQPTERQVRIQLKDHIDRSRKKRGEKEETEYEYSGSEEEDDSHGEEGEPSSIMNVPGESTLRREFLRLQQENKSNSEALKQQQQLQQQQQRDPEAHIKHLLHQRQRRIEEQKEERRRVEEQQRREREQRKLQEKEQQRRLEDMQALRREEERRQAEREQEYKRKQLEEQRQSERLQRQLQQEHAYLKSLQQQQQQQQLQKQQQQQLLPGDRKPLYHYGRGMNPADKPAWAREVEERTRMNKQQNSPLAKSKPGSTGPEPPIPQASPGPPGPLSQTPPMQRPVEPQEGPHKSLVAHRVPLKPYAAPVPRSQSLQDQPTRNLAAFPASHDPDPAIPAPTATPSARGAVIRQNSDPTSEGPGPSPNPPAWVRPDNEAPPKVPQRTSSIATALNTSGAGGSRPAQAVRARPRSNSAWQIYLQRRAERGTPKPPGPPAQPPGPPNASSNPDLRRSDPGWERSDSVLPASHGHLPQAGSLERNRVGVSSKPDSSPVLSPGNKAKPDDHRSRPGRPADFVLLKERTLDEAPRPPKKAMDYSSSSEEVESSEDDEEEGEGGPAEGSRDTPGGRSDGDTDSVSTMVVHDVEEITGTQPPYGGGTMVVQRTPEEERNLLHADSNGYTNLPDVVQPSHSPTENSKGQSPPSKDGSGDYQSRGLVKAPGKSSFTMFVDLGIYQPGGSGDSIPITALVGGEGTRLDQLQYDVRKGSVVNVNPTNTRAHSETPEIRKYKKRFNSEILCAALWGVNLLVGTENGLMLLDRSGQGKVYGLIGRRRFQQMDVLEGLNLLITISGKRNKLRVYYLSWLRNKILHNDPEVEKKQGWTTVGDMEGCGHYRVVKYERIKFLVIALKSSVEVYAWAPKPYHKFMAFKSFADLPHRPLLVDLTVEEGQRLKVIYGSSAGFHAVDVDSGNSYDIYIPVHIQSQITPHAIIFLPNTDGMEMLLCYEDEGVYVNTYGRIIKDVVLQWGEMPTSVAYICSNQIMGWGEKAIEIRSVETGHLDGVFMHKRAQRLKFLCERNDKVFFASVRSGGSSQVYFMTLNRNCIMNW

PDGFRB = biological target: T2, PDGFRB (Homo sapiens, UniProt P09619); details: 1 μM; cited from earlier work
T2 construct: literature Ambit
T2 sequence (P09619 33-1106): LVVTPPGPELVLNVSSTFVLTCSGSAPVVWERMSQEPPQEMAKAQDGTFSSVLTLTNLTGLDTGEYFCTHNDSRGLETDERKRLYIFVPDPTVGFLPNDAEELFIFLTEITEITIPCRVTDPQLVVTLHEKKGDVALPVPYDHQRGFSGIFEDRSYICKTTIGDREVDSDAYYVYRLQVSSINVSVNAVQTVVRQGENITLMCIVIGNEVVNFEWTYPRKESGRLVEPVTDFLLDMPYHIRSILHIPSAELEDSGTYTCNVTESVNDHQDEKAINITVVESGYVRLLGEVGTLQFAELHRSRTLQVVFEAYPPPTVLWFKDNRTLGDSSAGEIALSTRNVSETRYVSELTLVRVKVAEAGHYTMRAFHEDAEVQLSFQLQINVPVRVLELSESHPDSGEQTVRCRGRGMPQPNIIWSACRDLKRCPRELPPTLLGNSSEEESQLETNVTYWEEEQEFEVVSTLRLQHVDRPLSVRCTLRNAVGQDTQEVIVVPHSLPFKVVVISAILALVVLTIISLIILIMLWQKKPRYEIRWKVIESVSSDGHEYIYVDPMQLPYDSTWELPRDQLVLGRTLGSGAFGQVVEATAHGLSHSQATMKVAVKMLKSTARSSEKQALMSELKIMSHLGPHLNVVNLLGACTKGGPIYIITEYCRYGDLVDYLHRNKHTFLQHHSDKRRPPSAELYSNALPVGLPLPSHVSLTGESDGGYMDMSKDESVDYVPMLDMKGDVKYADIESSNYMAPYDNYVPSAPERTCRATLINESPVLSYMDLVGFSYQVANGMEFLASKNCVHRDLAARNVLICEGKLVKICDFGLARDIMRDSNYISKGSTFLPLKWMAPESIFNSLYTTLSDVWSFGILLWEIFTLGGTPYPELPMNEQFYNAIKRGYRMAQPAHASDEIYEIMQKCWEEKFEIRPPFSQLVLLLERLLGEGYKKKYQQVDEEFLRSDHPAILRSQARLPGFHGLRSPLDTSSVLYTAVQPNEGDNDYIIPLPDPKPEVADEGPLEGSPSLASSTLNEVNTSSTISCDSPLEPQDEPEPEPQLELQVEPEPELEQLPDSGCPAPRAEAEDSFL

CASK = biological target: T3, CASK (Homo sapiens, UniProt O14936); details: 1 μM; cited from earlier work
T3 construct: literature Ambit
T3 sequence (O14936 1-926): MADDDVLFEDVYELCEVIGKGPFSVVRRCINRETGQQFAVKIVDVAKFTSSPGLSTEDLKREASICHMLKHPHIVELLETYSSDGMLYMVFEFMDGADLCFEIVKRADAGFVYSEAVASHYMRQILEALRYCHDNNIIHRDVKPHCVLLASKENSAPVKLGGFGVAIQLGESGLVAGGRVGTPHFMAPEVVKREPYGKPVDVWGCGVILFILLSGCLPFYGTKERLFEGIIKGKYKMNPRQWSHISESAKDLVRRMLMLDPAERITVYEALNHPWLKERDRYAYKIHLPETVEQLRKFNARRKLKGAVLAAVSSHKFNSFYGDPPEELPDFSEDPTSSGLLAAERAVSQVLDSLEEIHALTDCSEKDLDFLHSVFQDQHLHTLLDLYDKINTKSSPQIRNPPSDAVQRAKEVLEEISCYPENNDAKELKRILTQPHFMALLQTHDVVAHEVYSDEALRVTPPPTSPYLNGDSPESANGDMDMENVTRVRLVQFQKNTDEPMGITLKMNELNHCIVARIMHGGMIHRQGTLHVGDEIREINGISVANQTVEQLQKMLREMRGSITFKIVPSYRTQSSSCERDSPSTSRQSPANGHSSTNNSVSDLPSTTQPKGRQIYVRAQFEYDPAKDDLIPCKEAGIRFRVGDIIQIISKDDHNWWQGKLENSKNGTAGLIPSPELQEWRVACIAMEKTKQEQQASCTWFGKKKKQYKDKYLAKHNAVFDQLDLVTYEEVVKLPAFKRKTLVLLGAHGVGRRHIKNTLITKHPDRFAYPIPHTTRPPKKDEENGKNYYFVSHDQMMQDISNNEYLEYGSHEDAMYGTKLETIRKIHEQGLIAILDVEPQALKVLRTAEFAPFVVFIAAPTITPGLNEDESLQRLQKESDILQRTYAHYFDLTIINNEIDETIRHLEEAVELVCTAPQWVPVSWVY

BMX [3] = biological target: T4, BMX (Homo sapiens, UniProt P51813); details: at Km for ATP; cited from earlier work
T4 sequence (P51813 1-675): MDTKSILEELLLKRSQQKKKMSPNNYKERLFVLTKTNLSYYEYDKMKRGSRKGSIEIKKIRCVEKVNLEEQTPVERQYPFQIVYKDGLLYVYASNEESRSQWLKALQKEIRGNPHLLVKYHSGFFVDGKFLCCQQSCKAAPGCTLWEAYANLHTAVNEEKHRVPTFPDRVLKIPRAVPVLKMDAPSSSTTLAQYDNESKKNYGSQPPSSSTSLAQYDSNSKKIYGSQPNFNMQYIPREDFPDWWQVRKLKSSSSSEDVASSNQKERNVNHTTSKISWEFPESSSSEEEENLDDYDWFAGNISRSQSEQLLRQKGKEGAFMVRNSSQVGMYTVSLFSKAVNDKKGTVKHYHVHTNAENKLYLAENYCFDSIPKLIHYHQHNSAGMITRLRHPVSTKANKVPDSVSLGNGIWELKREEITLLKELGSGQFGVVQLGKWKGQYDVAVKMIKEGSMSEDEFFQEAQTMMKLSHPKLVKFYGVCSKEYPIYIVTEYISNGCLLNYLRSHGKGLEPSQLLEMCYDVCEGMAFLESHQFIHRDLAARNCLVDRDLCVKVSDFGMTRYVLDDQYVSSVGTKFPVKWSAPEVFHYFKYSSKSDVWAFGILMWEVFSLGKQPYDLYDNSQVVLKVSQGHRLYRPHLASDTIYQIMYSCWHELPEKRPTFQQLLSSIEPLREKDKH

NEK11 = biological target: T5, NEK11 (Homo sapiens, UniProt Q8NG66); details: 1 μM; cited from earlier work
T5 construct: literature Ambit
T5 sequence (Q8NG66 1-645): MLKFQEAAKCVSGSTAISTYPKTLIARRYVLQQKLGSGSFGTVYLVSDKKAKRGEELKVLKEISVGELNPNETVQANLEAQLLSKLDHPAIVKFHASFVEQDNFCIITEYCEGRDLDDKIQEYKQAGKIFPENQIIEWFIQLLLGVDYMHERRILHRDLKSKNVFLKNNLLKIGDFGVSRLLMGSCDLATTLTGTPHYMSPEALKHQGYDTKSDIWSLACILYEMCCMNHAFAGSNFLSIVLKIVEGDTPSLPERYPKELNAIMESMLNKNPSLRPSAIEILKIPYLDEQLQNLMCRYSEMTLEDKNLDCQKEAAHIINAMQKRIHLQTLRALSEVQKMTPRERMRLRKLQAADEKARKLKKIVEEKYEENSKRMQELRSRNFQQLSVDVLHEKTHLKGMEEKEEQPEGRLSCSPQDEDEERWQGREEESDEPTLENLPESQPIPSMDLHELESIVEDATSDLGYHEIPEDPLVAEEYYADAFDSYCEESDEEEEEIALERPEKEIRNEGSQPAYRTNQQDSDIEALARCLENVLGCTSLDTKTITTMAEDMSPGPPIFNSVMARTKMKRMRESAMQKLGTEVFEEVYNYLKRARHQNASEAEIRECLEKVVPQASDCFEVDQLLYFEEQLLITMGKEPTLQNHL

[4] = tested on: CD69 expression in B cells; details: human whole blood; read-out: IC50 IgM-stimulated CD69 expression in B cells; cited from earlier work
[5] = tested on: histamine release in mast cells; details: read-out: IC50 IgE-Fce cross-linking induced histamine release; cited from earlier work
[6] = tested on: adjuvant-induced arthritis; details: rat AIA, combination; cited from earlier work
[7] = tested on: hypersensitive immune responses; details: rPCA, 30 mg/kg; cited from earlier work
CD69 expression = details: oral 3, 30, 100 mg/kg, cited from earlier work
arthritis [8] = details: cited from earlier work
arthritis [9] = details: 100 mg/kg oral, preventive mode; cited from earlier work
[10] = tested on: TNFα release in monocytes; details: read-out: IC50 IgG-FcγR mediated TNFα release; cited from earlier work
TEC = biological target: T6, TEC (Homo sapiens, UniProt P42680); assay: KINOMEscan competition binding assay, Kd
T6 sequence (P42680 1-631): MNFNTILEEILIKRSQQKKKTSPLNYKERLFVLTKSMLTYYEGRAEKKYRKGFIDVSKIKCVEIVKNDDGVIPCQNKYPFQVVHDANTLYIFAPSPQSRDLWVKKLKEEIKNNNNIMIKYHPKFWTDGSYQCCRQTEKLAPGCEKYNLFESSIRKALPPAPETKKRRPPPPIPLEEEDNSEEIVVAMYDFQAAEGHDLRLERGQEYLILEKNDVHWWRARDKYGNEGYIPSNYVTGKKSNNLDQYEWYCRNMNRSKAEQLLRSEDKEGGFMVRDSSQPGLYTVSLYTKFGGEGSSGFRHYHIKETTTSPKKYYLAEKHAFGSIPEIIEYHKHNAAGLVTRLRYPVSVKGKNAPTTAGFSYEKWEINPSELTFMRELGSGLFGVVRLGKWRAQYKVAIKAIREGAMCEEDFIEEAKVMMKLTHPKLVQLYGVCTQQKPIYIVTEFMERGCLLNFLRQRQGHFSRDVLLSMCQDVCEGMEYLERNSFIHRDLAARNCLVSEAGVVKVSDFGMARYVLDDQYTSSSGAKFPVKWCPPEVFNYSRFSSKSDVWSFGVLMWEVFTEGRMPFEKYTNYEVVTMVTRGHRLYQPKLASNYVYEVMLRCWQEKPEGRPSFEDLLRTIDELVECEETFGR
Protocol: (§1) The assay is performed by combining three components: DNA-tagged kinase; immobilized ligand; and a test compound. The ability of the test compound to compete with the immobilized ligand is measured via quantitative PCR of the DNA tag. The kinase-tagged T7 phage strains were prepared in an E. coli host derived from the BL21 strain. E. coli were grown to log-phase and infected with T7 phage and incubated with shaking at 32° C. until lysis. The lysates were centrifuged and filtered to remove cell debris. The remaining kinases were produced in HEK-293 cells and subsequently tagged with DNA for qPCR detection. […] The liganded beads were blocked with excess biotin and washed with blocking buffer (SeaBlock (Pierce), 1% BSA, 0.05% Tween 20, 1 mM DTT) to remove unbound ligand and to reduce non-specific binding. […] All reactions were performed in polystyrene 96-well plates in a final volume of 0.135 ml. […] The kinase concentration in the eluates was measured by qPCR. An 11-point 3-fold serial dilution of each test compound was prepared in 100% DMSO at 100× final test concentration and subsequently diluted to 1× in the assay (final DMSO concentration=1%). […] Binding constants (Kds) were calculated with a standard dose-response curve using the Hill equation: Response=Background+(Signal−Background)/[1+(Kd^Hill Slope/Dose^Hill Slope)]. The Hill Slope was set to −1. […]

BTK = BTK (Homo sapiens, UniProt Q06187); assay: KINOMEscan competition binding assay, Kd
Chain of BTK (Q06187 whole entry): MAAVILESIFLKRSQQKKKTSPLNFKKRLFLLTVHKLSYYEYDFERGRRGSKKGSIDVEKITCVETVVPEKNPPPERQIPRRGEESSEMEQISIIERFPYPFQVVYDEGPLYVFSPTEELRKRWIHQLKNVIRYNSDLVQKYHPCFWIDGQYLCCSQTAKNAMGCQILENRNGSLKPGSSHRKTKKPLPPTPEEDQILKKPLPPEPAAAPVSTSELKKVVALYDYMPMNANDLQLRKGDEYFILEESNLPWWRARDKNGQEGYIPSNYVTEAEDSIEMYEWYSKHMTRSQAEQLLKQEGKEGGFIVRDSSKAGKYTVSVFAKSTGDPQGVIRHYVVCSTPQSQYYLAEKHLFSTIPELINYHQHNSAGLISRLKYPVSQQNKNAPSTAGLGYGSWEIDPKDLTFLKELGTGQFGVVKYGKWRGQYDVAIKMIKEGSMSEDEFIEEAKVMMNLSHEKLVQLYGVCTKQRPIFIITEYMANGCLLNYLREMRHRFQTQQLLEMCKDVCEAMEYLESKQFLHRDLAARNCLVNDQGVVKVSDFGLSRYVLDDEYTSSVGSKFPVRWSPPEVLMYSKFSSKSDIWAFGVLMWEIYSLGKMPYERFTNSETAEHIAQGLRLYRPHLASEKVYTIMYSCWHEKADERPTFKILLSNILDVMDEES
Protocol: as §1

JAK3 = JAK3 (Homo sapiens, UniProt P52333); assay: KINOMEscan competition binding assay, Kd
Chain of JAK3 (P52333 814-1124 limits assumed): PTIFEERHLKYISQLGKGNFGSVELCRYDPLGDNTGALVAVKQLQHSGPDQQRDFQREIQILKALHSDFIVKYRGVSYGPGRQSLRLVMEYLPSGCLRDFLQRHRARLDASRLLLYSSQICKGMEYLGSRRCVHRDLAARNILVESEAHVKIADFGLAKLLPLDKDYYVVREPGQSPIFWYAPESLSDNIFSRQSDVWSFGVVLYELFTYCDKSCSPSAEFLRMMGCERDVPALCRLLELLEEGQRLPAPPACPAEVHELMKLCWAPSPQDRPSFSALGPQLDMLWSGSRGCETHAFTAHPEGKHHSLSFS
Protocol: as §1

BMX [11] = biological target: T4, BMX; assay: KINOMEscan competition binding assay, Kd; design: DNA tag for qPCR (T7 phage display or DNA tag added after HEK-293 expression); host or cells: E. coli BL21-derived host (T7 phage) or HEK-293
Text: The Hill Slope was set to −1.

SMILES: C=CC(=O)N1CCCC(n2nc(-c3ccc(Oc4ccccc4)cc3)c3c(N)ncnc32)C1 (stereo not drawn) [PCI-32765]
- auto-antibody production and development of kidney disease [1]: inhibited
- course of arthritis (arthritis [2]): can reverse
- level of circulating autoantibodies (arthritis [2]): reduces

SMILES: Cc1c(NC(=O)c2ccc(C(C)(C)C)cc2)cccc1-c1cn(C)c(=O)c(Nc2ccc(C(=O)N3CCOCC3)cc2)n1 [CGI-1746]
- displacement of control ligand, MINK (MINK; 1 μM): 77%
- Kd (MINK; read-out: Kd MINK1): 40000 nM
- displacement of control ligand, PDGFRB (PDGFRB): 59%
- displacement of control ligand, CASK (CASK): 69%
- IC50 (BMX [3]): 1870 nM
- displacement of control ligand, NEK11 (NEK11): 59%

SMILES: CN1CCN(c2ccc(Nc3cc(-c4cccc(-n5ccc6cc(C7CC7)cc(F)c6c5=O)c4CO)cn(C)c3=O)nc2)CC1 [RN-486]
- IC50 [4]: 17 nM
- IC50 [5]: 29.2 nM
- effect with low dose methotrexate [6]: additive effects
- effect in blocking hypersensitive immune responses [7]: 91%
- inhibition of ex vivo anti-IgD stimulated CD69 expression (CD69 expression; 3 and 6 h postdose, all doses): completely inhibited
- inhibition of ex vivo anti-IgD stimulated CD69 expression (CD69 expression; 24 h postdose): 50-80%
- disease progression (arthritis [8]; mCIA and mCAIA models): dose-dependently inhibits
- progression of disease (arthritis [8]; therapeutic mode, 30 mg/kg): did not show progression of disease
- inhibition of arthritis as measured by clinical scores (arthritis [9]): complete inhibition
- IC50 [10]: 4 nM

- Kd (TEC): 2400 nM
- Kd (BTK): 0.86 nM
- selectivity for BTK over TEC, BMX (BTK; kinases inhibited the most next to BTK): > 1000 fold
- Kd (JAK3): 14000 nM
- Kd (BMX [11]): 1300 nM
SMILES: C=CC(=O)Nc1cccc(Nc2nc(-c3cccc(-n4ncc5cc(C(C)(C)C)cc(F)c5c4=O)c3CO)cn(C)c2=O)c1 [CY-130526]
